In article PMC9151520 (Archives of Toxicology, 2022):
“And” between values parts separate entries of the source, which are not always exact repeats. Identical values can stand only once. Counter-ions that a name gives are not always drawn. Like-named read-outs stand apart in the source and are kept apart here.

Tests used:
[1] = tested on: p53 signaling (p53RE-bla HCT-116 cells)
[2] = tested on: p53 signaling (p53RE-bla HCT-116 cells); remark: listed apart in the source
[3] = tested on: p53 signaling (p53RE-bla HCT-116 cells); test: cells; assay type: cell-based
[4] = Homo sapiens, HCT-116, read-out: EC50, p53 activation, primary screening
[5] = Homo sapiens, HCT-116, read-out: Efficacy, p53 activation, primary screening
[6] = Homo sapiens, HCT-116, read-out: p53 activation EC50, cherry pick confirmation
[7] = Homo sapiens, HCT-116, read-out: p53 activation EC50, primary screening
[8] = Homo sapiens, HCT-116, read-out: p53 activation efficacy, cherry pick confirmation
[9] = Homo sapiens, HCT-116, read-out: p53 activation efficacy, primary screening
[10] = read-out: p53 activation EC50, cherry pick confirmation
[11] = read-out: p53 activation EC50, primary screening
[12] = read-out: EC50, p53 activation, cherry pick confirmation
[13] = read-out: EC50, p53 activation, primary screening

Row | Molecule | EC50, viability, cherry pick confirmation (p53RE-bla HCT-116 cells) | EC50, viability, primary screening (p53RE-bla HCT-116 cells) | Efficacy, viability, cherry pick confirmation (p53RE-bla HCT-116 cells) | Efficacy, viability, primary screening (p53RE-bla HCT-116 cells) | EC50, p53 activation, cherry pick confirmation [1] | Efficacy, p53 activation, cherry pick confirmation [3] | Viability EC50, cherry pick confirmation (p53RE-bla HCT-116 cells) | Viability EC50, primary screening (p53RE-bla HCT-116 cells) | Viability efficacy, cherry pick confirmation (p53RE-bla HCT-116 cells) | Viability efficacy, primary screening (p53RE-bla HCT-116 cells) | p53 activation EC50, cherry pick confirmation [1] | p53 activation EC50, primary screening [1] | p53 activation efficacy, cherry pick confirmation [1] | p53 activation efficacy, primary screening [1] | p53 activation EC50, cherry pick confirmation [2] | p53 activation EC50, primary screening [2] | p53 activation efficacy, cherry pick confirmation [2] | p53 activation efficacy, primary screening [2] | EC50 [3, 7] [µM] | Emax [3, 9] [%] | further results
1 | Oc1ccc(Oc2ccccc2)cc1 [4-Phenoxyphenol] | inactive | inactive | inactive | inactive | inactive | inactive | – | – | – | – | – | – | – | – | – | – | – | – | – | – | EC50, p53 activation, primary screening [1]: inactive; Efficacy, p53 activation, cherry pick confirmation [1]: inactive; Efficacy, p53 activation, primary screening [1]: inactive; EC50, p53 activation, cherry pick confirmation [2]: inactive; EC50, p53 activation, primary screening [2]: inactive; Efficacy, p53 activation, cherry pick confirmation [2]: inactive; Efficacy, p53 activation, primary screening [2]: inactive; EC50, p53 activation, cherry pick confirmation [3]: inactive; EC50 [3, 4]: 25.6 µM; Emax [3, 5]: 32.4%
2 | O=C1c2ccccc2C(=O)C1(O)O [Ninhydrin] | – | – | – | – | – | – | inactive | inactive | inactive | inactive | inactive | inactive | inactive | inactive | inactive | inactive | inactive | inactive | 41.2 | 55.1 | EC50 [3, 6]: 22.3 µM; Emax [3, 8]: 44.3%
3 | CO/C=C(/C(=O)OC)c1ccccc1COc1cccc(C(F)(F)F)n1 [Picoxystrobin] | – | – | – | – | – | – | inactive | inactive | inactive | inactive | inactive | inactive | inactive | inactive | inactive | inactive | inactive | inactive | – | – | p53 activation efficacy, cherry pick confirmation [3]: 51.0407; p53 activation efficacy, primary screening [3]: 42.314; EC50 [3, 10]: 12.5 µM; EC50 [3, 11]: 4.78 µM
4 | O=C(O)Cc1ccccc1Nc1c(Cl)cccc1Cl [Diclofenac sodium] | inactive | inactive | inactive | inactive | inactive | inactive | – | – | – | – | – | – | – | – | – | – | – | – | – | – | EC50, p53 activation, primary screening [1]: inactive; Efficacy, p53 activation, cherry pick confirmation [1]: inactive; Efficacy, p53 activation, primary screening [1]: inactive; EC50, p53 activation, cherry pick confirmation [2]: inactive; EC50, p53 activation, primary screening [2]: inactive; Efficacy, p53 activation, cherry pick confirmation [2]: inactive; Efficacy, p53 activation, primary screening [2]: inactive; EC50, p53 activation, cherry pick confirmation [3]: inactive; EC50 [3, 4]: 51.3 µM; Emax [3, 5]: 38.2%
5 | CN(C)c1ccc(C(=O)c2ccc(N(C)C)cc2)cc1 [Michler's ketone] | – | – | – | – | – | – | inactive | inactive | inactive | inactive | inactive | inactive | inactive | inactive | inactive | inactive | inactive | inactive | 2.8 | 37.9 | p53 activation EC50, cherry pick confirmation [3]: inactive; p53 activation efficacy, cherry pick confirmation [3]: inactive
6 | Potassium dichromate | – | – | – | – | – | – | inactive | inactive | – | – | inactive | inactive | inactive | inactive | inactive | inactive | inactive | inactive | – | – | EC50 (p53RE-bla HCT-116 cells; read-out: Viability EC50, cherry pick confirmation): 34.6 µM and 20.2 µM; EC50 (p53RE-bla HCT-116 cells; read-out: Viability EC50, primary screening): 21.3 µM and 31 µM; p53 activation efficacy, primary screening [3]: 47.8443; EC50 [3, 10]: 14.9 µM; EC50 [3, 11]: 8.27 µM
7 | Cl.O.c1cnc2c(c1)ccc1cccnc12 | inactive | inactive | – | inactive | inactive | 70.9047 | – | – | – | – | – | – | – | – | – | – | – | – | – | – | EC50 (p53RE-bla HCT-116 cells; read-out: EC50, viability, cherry pick confirmation): 22.1 µM; EC50, p53 activation, primary screening [1]: inactive; Efficacy, p53 activation, cherry pick confirmation [1]: inactive; Efficacy, p53 activation, primary screening [1]: inactive; EC50, p53 activation, cherry pick confirmation [2]: inactive; EC50, p53 activation, primary screening [2]: inactive; Efficacy, p53 activation, cherry pick confirmation [2]: inactive; Efficacy, p53 activation, primary screening [2]: inactive; Efficacy, p53 activation, primary screening [3]: 35.453; EC50 [3, 12]: 50.2 µM; EC50 [3, 13]: 25.8 µM
8 | CCN(CC)CCCC(C)Nc1c2ccc(Cl)cc2nc2ccc(OC)cc12 (centres unmarked) [Quinacrine dihydrochloride dihydrate] | – | – | – | – | – | – | inactive | inactive | inactive | inactive | inactive | inactive | inactive | inactive | inactive | inactive | inactive | inactive | 20.7 | 79.8 | EC50 [3, 6]: 8.34 µM; Emax [3, 8]: 271%
9 | Thimerosal | – | – | – | – | – | – | – | – | – | – | – | – | – | – | – | – | – | – | – | – | EC50 (p53RE-bla HCT-116 cells; read-out: Viability EC50, HLM): 10.6 µM and 8.9 µM; EC50 (p53RE-bla HCT-116 cells; read-out: Viability EC50, No MS): 8.56 µM and 9.16 µM; EC50 (p53RE-bla HCT-116 cells; read-out: Viability EC50, RLM): 8.9 µM; p53 activation EC50, HLM [1]: inactive; EC50 ([1]; read-out: p53 activation EC50, HLM): 5.03 µM; p53 activation EC50, RLM [2]: inactive; p53 activation Efficacy, RLM [2]: inactive; p53 activation Efficacy, No MS [3]: 73.3573% and 52.656%
10 | Nc1cnn([C@@H]2O[C@H](CO)[C@@H](O)[C@H]2O)c(=O)n1 [6-Azacytidine] | inactive | inactive | inactive | inactive | inactive | 68.68 | – | – | – | – | – | – | – | – | – | – | – | – | – | – | EC50, p53 activation, primary screening [1]: inactive; Efficacy, p53 activation, cherry pick confirmation [1]: inactive; Efficacy, p53 activation, primary screening [1]: inactive; EC50, p53 activation, cherry pick confirmation [2]: inactive; EC50, p53 activation, primary screening [2]: inactive; Efficacy, p53 activation, cherry pick confirmation [2]: inactive; Efficacy, p53 activation, primary screening [2]: inactive; Efficacy, p53 activation, primary screening [3]: 56.623; EC50 [3, 12]: 1.1 µM; EC50 [3, 13]: 0.807 µM
11 | COP(=O)(OC)Oc1ccc([N+](=O)[O-])cc1 [Methylparaoxon] | inactive | inactive | inactive | inactive | inactive | inactive | – | – | – | – | – | – | – | – | – | – | – | – | – | – | EC50 [2]: 20.1 µM; EC50 [2, 12]: 20 µM; EC50, p53 activation, cherry pick confirmation [3]: inactive; EC50, p53 activation, primary screening [3]: inactive; Efficacy, p53 activation, primary screening [3]: inactive
12 | N#Cc1c[nH]cc1-c1cccc2c1OC(F)(F)O2 [Fludioxonil] | – | – | – | – | – | – | inactive | inactive | inactive | inactive | inactive | inactive | inactive | inactive | inactive | inactive | inactive | inactive | 15.6 | 65.1 | p53 activation EC50, cherry pick confirmation [3]: inactive; p53 activation efficacy, cherry pick confirmation [3]: inactive
13 | CCC(C)(NC(=O)c1cc(Cl)c(C)c(Cl)c1)C(=O)CCl (centres unmarked) [Zoxamide] | – | – | – | – | – | – | inactive | inactive | inactive | inactive | inactive | inactive | inactive | inactive | inactive | inactive | inactive | inactive | 38 | 50.7 | EC50 [3, 6]: 22.3 µM; Emax [3, 8]: 94.8%
